Data taken from patent US20160264536A1, “HETEROCYCLIC COMPOUND” (Takeda Pharmaceutical Company Limited, priority 2013, published 2016).

Each compound was assayed against T1, human PDE2A3 enzyme (Homo sapiens, UniProt O00408) (assay: PDE enzyme inhibitory assay (SPA, [3H]cGMP substrate)). Conditions: compound 1 μM, substrate [3H]cGMP 77 nM, read-out: inhibitory rate (%) (1 μM).
T1 construct: Human PDE2A3 full-length gene was transduced into Sf9; His-tag; made in house; host or cells: Sf9 insect cells
T1 sequence (O00408 whole entry): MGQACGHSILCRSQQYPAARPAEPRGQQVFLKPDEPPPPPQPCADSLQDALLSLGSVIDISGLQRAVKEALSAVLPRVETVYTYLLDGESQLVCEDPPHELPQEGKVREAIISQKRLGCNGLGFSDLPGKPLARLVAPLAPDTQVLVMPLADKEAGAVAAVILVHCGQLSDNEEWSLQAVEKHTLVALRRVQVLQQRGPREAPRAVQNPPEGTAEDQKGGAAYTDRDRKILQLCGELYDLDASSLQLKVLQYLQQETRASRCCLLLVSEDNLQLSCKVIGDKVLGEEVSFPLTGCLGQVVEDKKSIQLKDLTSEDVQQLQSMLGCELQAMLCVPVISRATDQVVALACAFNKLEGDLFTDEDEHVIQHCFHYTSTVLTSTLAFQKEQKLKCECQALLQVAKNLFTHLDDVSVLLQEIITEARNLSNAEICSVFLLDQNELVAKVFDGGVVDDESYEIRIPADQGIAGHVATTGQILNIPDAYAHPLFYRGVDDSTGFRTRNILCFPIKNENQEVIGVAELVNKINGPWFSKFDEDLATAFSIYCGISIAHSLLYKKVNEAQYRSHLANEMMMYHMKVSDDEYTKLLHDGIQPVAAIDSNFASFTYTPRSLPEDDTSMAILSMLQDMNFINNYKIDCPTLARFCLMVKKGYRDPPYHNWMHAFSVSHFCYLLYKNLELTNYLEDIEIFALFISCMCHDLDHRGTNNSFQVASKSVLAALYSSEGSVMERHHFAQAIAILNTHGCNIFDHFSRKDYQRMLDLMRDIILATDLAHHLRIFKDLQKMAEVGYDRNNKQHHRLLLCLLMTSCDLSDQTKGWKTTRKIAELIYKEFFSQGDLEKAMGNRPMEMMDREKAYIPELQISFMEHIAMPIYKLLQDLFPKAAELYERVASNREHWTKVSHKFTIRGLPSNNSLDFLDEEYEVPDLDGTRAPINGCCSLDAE
Format: biochemical
Experimental: PDE Enzyme Inhibitory Assay
Human PDE2A3 full-length gene was transduced into Sf9, and human PDE2A3 enzyme was purified by His-tag affinity column and gel filtration. The enzyme was stored at −70° C. until use. PDE activity was measured by using a SPA (Scintillation Proximity Assay) (GE Healthcare). To evaluate the inhibitory activity of the compound, 10 μl of serial diluted compounds were reacted with 20 μl of PDE enzyme in assay buffer (50 mM HEPES-NaOH, 8.3 mM MgCl2, 1.7 mM EGTA, 0.1% BSA (pH 7.4)) for 30 min at room temperature. Final concentration of DMSO in the reaction solution was 1%. Compounds were tested in duplicate in 96-well half-area plates (Corning) or 384-well OptiPlate (PerkinElmer). To start the reaction, 10 μl of substrate [^3H]cGMP (final concentration 77 nM, PerkinElmer) was added to a total volume of 40 μl. After reaction for 60 min at room temperature, 20 μl of 20 mg/mL yttrium SPA beads containing zinc sulfate was added to terminate the reaction. After being settled for further 1 hour, the assay plates were counted in a scintillation counter (PerkinElmer) to allow calculation of inhibition rate. Inhibition rate was calculated on the basis of 0% control wells with enzyme and DMSO, and 100% control wells without enzyme.

Structure (SMILES) | inhibition at 1 µM
COCC(NC(=O)c1cc(=O)[nH]c(-c2ccccn2)n1)c1ccc(-n2cccc2)c(F)c1 (stereo not drawn) [Example 116, N-(1-(3-fluoro-4-(1H-pyrrol-1-yl)phenyl)-2-methoxyethyl)-6-oxo-2-(pyridin-2-yl)-1,6-dihydropyrimidine-4-carboxamide] | 99%
COC[C@@H](NC(=O)c1cc(=O)[nH]c(-c2ncc(OC)cc2OC)n1)c1ccc(OC(F)(F)F)c(F)c1 [Example 152, 2-(3,5-dimethoxypyridin-2-yl)-N-((1S)-1-(3-fluoro-4-(trifluoromethoxy)phenyl)-2-methoxyethyl)-6-oxo-1,6-dihydropyrimidine-4-carboxamide] | 96%
CC(C)(O)[C@@H](NC(=O)c1cc(=O)[nH]c(-c2ccccn2)n1)c1ccc(OC(F)(F)F)c(F)c1 [Example 102, N-((1S)-1-(3-fluoro-4-(trifluoromethoxy)phenyl)-2-hydroxy-2-methylpropyl)-6-oxo-2-(pyridin-2-yl)-1,6-dihydropyrimidine-4-carboxamide] | 102%
COC[C@@H](NC(=O)c1cc(=O)[nH]c(-c2ncc(OC)cc2Cl)n1)c1ccc(OC(F)(F)F)c(F)c1 [Example 184, 2-(3-chloro-5-methoxypyridin-2-yl)-N-((1S)-1-(3-fluoro-4-(trifluoromethoxy)phenyl)-2-methoxyethyl)-6-oxo-1,6-dihydropyrimidine-4-carboxamide] | 95%
CC(C)(C)c1nc(C(=O)N[C@@H](c2ccc(OC(F)(F)F)c(F)c2)C(C)(C)O)cc(=O)[nH]1 [Example 95, 2-tert-butyl-N-(1-(3-fluoro-4-(trifluoromethoxy)phenyl)-2-hydroxy-2-methylpropyl)-6-oxo-1,6-dihydropyrimidine-4-carboxamide] | 104%
COC[C@@H](NC(=O)c1cc(=O)[nH]c(-c2ccoc2)n1)c1ccc(OC(F)(F)F)c(F)c1 [Example 122, N-((1S)-1-(3-fluoro-4-(trifluoromethoxy)phenyl)-2-methoxyethyl)-2-(3-furyl)-6-oxo-1,6-dihydropyrimidine-4-carboxamide] | 102%
COC[C@@H](NC(=O)c1cc(=O)[nH]c(-c2ccccc2)n1)c1ccc(OC(F)(F)F)c(F)c1 [Example 87, N-((1S)-1-(3-fluoro-4-(trifluoromethoxy)phenyl)-2-methoxyethyl)-6-oxo-2-phenyl-1,6-dihydropyrimidine-4-carboxamide] | 98%
COC[C@@H](NC(=O)c1cc(=O)[nH]c(N2CCCC2)n1)c1ccc(OC(F)(F)F)cc1 [Example 52, N-((1S)-2-methoxy-1-(4-(trifluoromethoxy)phenyl)ethyl)-6-oxo-2-(pyrrolidin-1-yl)-1,6-dihydropyrimidine-4-carboxamide] | 102%
Cn1cc(-c2cncc(C(=O)N[C@@H](c3ccc(OC(F)(F)F)c(F)c3)C(C)(C)O)n2)cn1 [Example 158, N-((1S)-1-(3-fluoro-4-(trifluoromethoxy)phenyl)-2-hydroxy-2-methylpropyl)-6-(1-methyl-1H-pyrazol-4-yl)pyrazine-2-carboxamide] | 97%
COC[C@@H](NC(=O)c1cc(=O)[nH]c(-c2ncc(OC)cc2C)n1)c1ccc(OC(F)(F)F)c(F)c1 [Example 179, N-((1S)-1-(3-fluoro-4-(trifluoromethoxy)phenyl)-2-methoxyethyl)-2-(5-methoxy-3-methylpyridin-2-yl)-6-oxo-1,6-dihydropyrimidine-4-carboxamide] | 94%
COC[C@@H](NC(=O)c1cc(=O)[nH]c(N2CCCC2)n1)c1ccc(OC(F)(F)F)c(F)c1 [Example 61, N-((1S)-1-(3-fluoro-4-(trifluoromethoxy)phenyl)-2-methoxyethyl)-6-oxo-2-(pyrrolidin-1-yl)-1,6-dihydropyrimidine-4-carboxamide] | 98%
CCN(C)c1nc(C(=O)N[C@H](COC)c2ccc(OC(F)(F)F)c(F)c2)cc(=O)[nH]1 [Example 76, 2-(ethyl(methyl)amino)-N-((1S)-1-(3-fluoro-4-(trifluoromethoxy)phenyl)-2-methoxyethyl)-6-oxo-1,6-dihydropyrimidine-4-carboxamide] | 101%
COC[C@@H](NC(=O)c1cc(=O)[nH]c(N(C)C)n1)c1ccc(OC(F)(F)F)cc1 [Example 20, 2-(dimethylamino)-N-((1S)-2-methoxy-1-(4-(trifluoromethoxy)phenyl)ethyl)-6-oxo-1,6-dihydropyrimidine-4-carboxamide] | 98%
COC[C@@H](NC(=O)c1cc(=O)[nH]c(N2CC(OC)C2)n1)c1ccc(OC(F)(F)F)cc1 [Example 55, 2-(3-methoxyazetidin-1-yl)-N-((1S)-2-methoxy-1-(4-(trifluoromethoxy)phenyl)ethyl)-6-oxo-1,6-dihydropyrimidine-4-carboxamide] | 98%
COC[C@@H](NC(=O)c1cc(=O)[nH]c(C2=CCC(OC)C2)n1)c1ccc(OC(F)(F)F)c(F)c1 (stereo partly drawn) [Example 171, N-((1S)-1-(3-fluoro-4-(trifluoromethoxy)phenyl)-2-methoxyethyl)-2-(4-methoxycyclopent-1-en-1-yl)-6-oxo-1,6-dihydropyrimidine-4-carboxamide] | 103%
